Test results from ChEMBL document CHEMBL1157802, “5-Functionalized indazoles as glucocorticoid receptor agonists” (Bioorg Med Chem Lett, 2010).
pEC50, pIC50: −log10 of the molar value.

How the values were obtained:
[1] = Inhibition of GABAA receptor agonist site at 1 uM; type: functional
Glucocorticoid receptor [2] = biological target: T1, Glucocorticoid receptor (Homo sapiens, UniProt P04150); test: Agonist activity at glucocorticoid receptor in human MDA-kb2 cells transfected with MMTV-LUC assessed as induction of MMTV-LTR/promoter linked LUC gene by luciferase transactivation assay; type: functional, cell-based; conditions: mda-kb2
T1 sequence (P04150 whole entry): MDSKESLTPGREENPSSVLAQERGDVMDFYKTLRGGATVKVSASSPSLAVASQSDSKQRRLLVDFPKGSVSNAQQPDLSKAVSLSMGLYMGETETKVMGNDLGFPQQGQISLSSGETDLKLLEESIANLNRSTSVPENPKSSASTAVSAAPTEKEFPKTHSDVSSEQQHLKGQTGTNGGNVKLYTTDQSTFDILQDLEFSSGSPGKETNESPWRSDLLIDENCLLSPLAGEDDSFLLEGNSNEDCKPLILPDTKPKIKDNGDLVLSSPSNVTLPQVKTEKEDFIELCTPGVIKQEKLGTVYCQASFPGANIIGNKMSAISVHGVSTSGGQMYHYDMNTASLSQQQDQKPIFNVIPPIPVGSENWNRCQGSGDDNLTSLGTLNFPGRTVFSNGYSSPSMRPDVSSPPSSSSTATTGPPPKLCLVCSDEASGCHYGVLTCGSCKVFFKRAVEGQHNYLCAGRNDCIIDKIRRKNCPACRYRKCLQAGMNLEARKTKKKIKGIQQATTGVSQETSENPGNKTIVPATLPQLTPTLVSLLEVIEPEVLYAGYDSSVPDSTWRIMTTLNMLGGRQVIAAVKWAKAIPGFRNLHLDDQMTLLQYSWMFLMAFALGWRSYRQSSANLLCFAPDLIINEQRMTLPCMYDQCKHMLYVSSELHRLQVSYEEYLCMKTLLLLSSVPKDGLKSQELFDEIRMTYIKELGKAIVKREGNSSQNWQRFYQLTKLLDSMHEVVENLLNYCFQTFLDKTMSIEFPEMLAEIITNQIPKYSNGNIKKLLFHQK

[3] = biological target: T2, Alpha-1B adrenergic receptor (Homo sapiens) (UniProt P35368); test: Inhibition of adrenergic Alpha-1B receptor at 1 uM
T2 sequence (whole entry): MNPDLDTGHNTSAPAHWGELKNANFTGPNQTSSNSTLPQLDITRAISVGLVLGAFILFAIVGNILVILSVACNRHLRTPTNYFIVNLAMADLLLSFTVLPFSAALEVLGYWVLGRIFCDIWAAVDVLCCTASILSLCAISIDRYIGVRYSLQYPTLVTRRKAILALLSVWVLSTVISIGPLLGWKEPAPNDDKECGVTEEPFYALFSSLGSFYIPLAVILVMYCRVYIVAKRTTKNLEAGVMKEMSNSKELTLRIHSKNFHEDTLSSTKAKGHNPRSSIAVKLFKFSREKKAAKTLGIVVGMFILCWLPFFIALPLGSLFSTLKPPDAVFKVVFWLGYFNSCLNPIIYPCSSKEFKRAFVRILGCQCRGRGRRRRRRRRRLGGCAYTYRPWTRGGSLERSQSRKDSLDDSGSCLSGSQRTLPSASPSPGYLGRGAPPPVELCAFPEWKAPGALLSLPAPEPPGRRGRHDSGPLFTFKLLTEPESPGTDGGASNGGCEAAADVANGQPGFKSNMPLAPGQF

[4] = Selectivity for human glucocorticoid receptor over progesterone receptor
[5] = Inhibition of nicotinic bungarotoxin-sensitive acetylcholine receptor at 1 uM
[6] = Inhibition of sigma 2 receptor at 1 uM
[7] = biological target: T3, Alpha-1A adrenergic receptor (Homo sapiens) (UniProt P35348); test: Inhibition of adrenergic alpha1A receptor at 1 uM
T3 sequence (whole entry): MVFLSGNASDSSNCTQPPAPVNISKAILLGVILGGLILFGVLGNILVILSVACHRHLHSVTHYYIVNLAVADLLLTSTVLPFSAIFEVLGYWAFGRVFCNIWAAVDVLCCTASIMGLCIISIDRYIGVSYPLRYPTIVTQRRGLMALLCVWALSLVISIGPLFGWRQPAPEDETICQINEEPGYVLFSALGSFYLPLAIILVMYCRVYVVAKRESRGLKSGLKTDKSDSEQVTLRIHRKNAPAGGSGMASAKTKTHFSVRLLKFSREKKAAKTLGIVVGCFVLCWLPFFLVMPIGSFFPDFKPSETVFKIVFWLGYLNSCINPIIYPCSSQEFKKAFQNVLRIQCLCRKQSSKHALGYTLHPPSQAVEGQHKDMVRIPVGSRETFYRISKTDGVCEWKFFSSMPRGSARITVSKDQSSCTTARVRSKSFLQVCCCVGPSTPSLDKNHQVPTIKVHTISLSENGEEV

[8] = biological target: Voltage-gated inwardly rectifying potassium channel KCNH2 (Homo sapiens, UniProt Q12809); test: Inhibition of human ERG by patch clamp method
Chain of Voltage-gated inwardly rectifying potassium channel KCNH2 (Q12809 whole entry): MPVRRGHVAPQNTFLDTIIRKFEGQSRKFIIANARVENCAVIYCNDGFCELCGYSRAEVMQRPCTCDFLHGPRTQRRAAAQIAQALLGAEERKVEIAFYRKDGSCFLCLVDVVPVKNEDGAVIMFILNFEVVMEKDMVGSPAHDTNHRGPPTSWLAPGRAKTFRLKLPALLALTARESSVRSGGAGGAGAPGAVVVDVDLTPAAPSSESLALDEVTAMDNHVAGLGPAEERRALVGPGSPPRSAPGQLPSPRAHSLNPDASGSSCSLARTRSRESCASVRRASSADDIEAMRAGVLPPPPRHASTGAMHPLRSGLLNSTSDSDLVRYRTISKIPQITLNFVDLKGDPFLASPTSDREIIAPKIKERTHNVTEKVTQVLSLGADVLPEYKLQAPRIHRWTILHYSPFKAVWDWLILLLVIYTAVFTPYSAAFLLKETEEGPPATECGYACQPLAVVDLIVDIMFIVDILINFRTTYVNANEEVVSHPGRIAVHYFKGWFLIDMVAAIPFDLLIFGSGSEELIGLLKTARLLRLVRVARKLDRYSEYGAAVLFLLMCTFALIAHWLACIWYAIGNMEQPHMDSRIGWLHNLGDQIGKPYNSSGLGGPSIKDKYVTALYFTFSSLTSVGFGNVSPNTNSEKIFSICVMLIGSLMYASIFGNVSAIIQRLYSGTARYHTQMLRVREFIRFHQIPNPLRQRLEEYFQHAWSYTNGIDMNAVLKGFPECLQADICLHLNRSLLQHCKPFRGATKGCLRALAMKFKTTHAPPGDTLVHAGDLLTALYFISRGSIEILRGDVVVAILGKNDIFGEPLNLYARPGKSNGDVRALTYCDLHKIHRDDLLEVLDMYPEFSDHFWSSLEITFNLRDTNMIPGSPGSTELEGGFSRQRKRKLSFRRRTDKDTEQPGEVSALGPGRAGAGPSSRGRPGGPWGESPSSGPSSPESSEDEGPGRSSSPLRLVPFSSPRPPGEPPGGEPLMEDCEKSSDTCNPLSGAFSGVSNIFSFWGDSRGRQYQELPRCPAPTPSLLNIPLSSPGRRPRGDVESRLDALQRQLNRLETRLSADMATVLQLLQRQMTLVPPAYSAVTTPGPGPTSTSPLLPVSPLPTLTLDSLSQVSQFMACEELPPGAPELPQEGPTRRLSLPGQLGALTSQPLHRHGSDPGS

[9] = Inhibition of phencyclidine receptor at 1 uM
[10] = biological target: Adenosine receptor A2a (Homo sapiens) (UniProt P29274); test: Inhibition of adenosine A2A receptor at 1 uM
Chain of Adenosine receptor A2a (Homo sapiens) (P29274 whole entry): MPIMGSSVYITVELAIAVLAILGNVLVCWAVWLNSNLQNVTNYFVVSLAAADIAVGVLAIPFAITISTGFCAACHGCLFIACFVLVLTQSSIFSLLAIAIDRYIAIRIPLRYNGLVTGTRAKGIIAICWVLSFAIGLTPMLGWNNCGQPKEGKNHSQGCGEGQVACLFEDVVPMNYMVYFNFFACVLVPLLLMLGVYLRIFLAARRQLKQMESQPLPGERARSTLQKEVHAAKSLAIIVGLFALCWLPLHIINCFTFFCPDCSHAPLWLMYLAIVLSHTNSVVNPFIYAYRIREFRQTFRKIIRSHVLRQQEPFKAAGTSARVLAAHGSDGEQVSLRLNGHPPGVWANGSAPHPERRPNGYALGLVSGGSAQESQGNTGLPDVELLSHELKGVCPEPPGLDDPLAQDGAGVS

hERG (KCNH2) = hERG (KCNH2) (Homo sapiens, UniProt Q12809); test: Inhibition of human ERG at 1 uM
Chain of hERG (KCNH2) (Q12809 whole entry): as the sequence (Q12809 whole entry) above

[11] = Selectivity for human glucocorticoid receptor over ERalpha
[12] = Inhibition of NMDA receptor at 1 uM
[13] = biological target: Beta-1 adrenergic receptor (Homo sapiens) (UniProt P08588); test: Inhibition of adrenergic beta-1 receptor at 1 uM
Chain of Beta-1 adrenergic receptor (Homo sapiens) (P08588 whole entry, looked up): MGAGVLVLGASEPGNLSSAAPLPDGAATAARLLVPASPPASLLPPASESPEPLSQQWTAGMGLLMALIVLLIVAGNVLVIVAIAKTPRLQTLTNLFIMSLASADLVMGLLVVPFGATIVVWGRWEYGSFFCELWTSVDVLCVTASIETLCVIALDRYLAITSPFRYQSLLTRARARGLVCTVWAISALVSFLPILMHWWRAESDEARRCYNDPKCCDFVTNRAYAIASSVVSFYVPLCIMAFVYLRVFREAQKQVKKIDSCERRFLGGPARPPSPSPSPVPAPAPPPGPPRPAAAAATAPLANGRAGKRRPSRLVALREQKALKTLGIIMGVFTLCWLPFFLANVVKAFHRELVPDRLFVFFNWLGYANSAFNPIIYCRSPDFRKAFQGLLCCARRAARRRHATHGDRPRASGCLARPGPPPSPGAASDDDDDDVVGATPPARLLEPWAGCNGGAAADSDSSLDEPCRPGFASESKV

Glucocorticoid receptor [14] = biological target: T1, Glucocorticoid receptor; test: Agonist activity at glucocorticoid receptor in human fibroblast assessed as inhibition of IL-1-beta-induced IL6 production treated 1 hr before IL1-beta challenge measured after 24 hrs by transrepression assay; type: functional
[15] = Inhibition of sodium channel site 2 at 1 uM
[16] = Inhibition of central benzodiazepine receptor at 1 uM
[17] = Inhibition of nicotinic acetylcholine receptor at 1 uM
[18] = biological target: D(1A) dopamine receptor (Homo sapiens) (UniProt P21728); test: Inhibition of dopamine D1 receptor at 1 uM
Chain of D(1A) dopamine receptor (Homo sapiens) (P21728 whole entry): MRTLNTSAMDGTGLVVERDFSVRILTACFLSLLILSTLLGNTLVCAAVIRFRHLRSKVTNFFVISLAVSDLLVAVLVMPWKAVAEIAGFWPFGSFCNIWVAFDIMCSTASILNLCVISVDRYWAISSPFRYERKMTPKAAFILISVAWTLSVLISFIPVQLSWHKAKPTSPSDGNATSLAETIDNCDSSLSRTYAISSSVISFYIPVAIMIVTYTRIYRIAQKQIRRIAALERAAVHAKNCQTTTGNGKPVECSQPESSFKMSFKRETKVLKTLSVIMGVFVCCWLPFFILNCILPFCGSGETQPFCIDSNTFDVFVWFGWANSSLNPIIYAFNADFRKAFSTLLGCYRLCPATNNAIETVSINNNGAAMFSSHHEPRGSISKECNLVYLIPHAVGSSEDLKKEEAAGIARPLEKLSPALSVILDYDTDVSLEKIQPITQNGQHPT

[19] = biological target: Beta-2 adrenergic receptor (Homo sapiens) (UniProt P07550); test: Inhibition of adrenergic beta2 receptor at 1 uM
Chain of Beta-2 adrenergic receptor (Homo sapiens) (P07550 whole entry, looked up): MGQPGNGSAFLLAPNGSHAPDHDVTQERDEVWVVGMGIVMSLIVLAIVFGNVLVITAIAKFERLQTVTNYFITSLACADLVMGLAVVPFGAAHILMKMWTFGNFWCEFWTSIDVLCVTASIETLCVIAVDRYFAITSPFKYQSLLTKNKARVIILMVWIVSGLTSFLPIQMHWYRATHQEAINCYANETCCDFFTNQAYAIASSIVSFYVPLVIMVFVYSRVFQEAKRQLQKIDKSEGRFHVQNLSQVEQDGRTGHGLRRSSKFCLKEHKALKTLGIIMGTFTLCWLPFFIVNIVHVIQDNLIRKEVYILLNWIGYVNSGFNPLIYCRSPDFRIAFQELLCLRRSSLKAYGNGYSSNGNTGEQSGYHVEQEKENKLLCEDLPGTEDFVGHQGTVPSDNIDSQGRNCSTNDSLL

[20] = Inhibition of phorbol ester site of PKC at 1 uM

SMILES | inhibition [1] | EC50 (Glucocorticoid receptor [2]) | inhibition [3] | Ratio [4] | inhibition [5] | inhibition [6] | inhibition [7] | pIC50 [8] | inhibition [9] | inhibition [10] | inhibition at 1 µM (hERG (KCNH2)) | Ratio [11] | inhibition [12] | inhibition [13] | pEC50 (Glucocorticoid receptor [14]) | inhibition [15] | inhibition [16] | inhibition [17] | inhibition [18] | inhibition [19] | also measured
OC(c1ccnc(Cl)c1)(c1ccc2c(cnn2-c2ccc(F)cc2)c1)C(F)(F)F (single isomer, unassigned; (-)) | < 50% | Not Active | < 50% | > 1000 | < 50% | < 50% | < 50% | < 5.00 | < 50% | < 50% | < 50% | > 1000 | < 50% | < 50% | 6.20 | < 50% | < 50% | < 50% | < 50% | < 50% | inhibition [20]: < 50%
Cc1cc(C(O)(c2ccc3c(cnn3-c3ccc(F)cc3)c2)C(F)(F)F)ccc1F (single isomer, unassigned; (-)) | < 50% | Not Active | < 50% | > 1000 | < 50% | < 50% | < 50% | < 5.00 | < 50% | < 50% | < 50% | > 1000 | < 50% | < 50% | 7.03 | < 50% | < 50% | < 50% | < 50% | < 50% | inhibition [20]: < 50%
